Test results as given in US6680199B1, “In vitro activation of mammalian oocytes” (Infigen, Inc., priority 1993, dated 2004).
Marks after values point to notes of the source that are not given here.

Columns and labels:
[1] = system: bovine oocytes matured for 24 hours; assay: Parthenogenic activation of in vitro matured bovine oocytes (activation, pronuclear formation); assay type: cell-based; settings: for Activation of oocytes, result in words / Chromosome / pronuclear outcome, result in words: Experiment 1, 5 hours of culture, FIG. 1b-1d; for % Activation / % Pronuclear formation: oocytes matured 24 h, ionomycin 5 μM 4 min and/or DMAP for 5 hours, determined after 5 hours of culture
Method: Bovine oocytes were obtained at an abattoir and transported to the laboratory in saline (30-34° C., transport time 2-6 hr). Oocytes from small follicles (1-6 mm) were aspirated and matured according to the methods described in Sirard et al., 1988. Briefly, oocytes were diluted out of the follicular fluid with 3 dilutions of TL HEPES modified by removing glucose, adding 0.22 mM pyruvate and 1 mg/ml of BSA (Fraction V, Sigma Chemical CO, St. Louis, Mo.).
The oocytes were placed in 50 μl drops of TCM-199 (Earle's Salts; Gibco, Grand Island, N.Y.) supplemented with 10% heat treated fetal calf serum, 0.22 mM pyruvate, 5 μg/ml FSH-P (Scherring-Plough Animal Health Corp., Kenilworth, N.J.) and 1 μ/ml estradiol. Ten oocytes were incubated in a 50 μl drop under paraffin oil for 24 hours at 39° C. in 5% CO2 in air humidified atmosphere.
(§1) The cumulus was removed from matured oocytes by vortexing vigorously in 200 μl or TL-HEPES for 3 min. The denuded oocytes were diluted in 3 changes of TL-HEPES to separate the oocytes from the cumulus cells. Where indicated, the oocytes were exposed to 5 μM ionomycin (5 mM stock in DMSO; Calbiochem, La Jolla, Calif.) in TL-HEPES (1 mg/ml fatty acid free BSA) for 4 min. The oocytes were then diluted into TL-HEPES (30 mg/ml fatty acid BSA) for 5 min followed by dilution into TL-HEPES (1 mg/ml Fraction V BSA). The oocytes were then moved to 50 μl drops of embryonic cell development media (U.S. Pat. No. 5,096,822 to Rosenkrans et al., with or without DMAP (1.9 mM) for the indicated times (39° C., 5% CO2 in air). Embryonic cell development media contained 114.6 mM NaCl, 3.1 mM KCl, 5 mM hemi-calcium lactate, 0.4 mM Na pyruvate, 1 mM glutamine, 3 mg/ml fatty acid free BSA, MEM nonessential amino acids and BME amino acids.
Activation was evaluated at times indicated in each experiment. The oocytes were mounted on slides, fixed with acetic acid:alcohol (1:3) and observed with Nomarski optics. Special care was taken in determining if metaphase plates were metaphase II or aberrant metaphase III (Kubiak, 1989). Oocytes that contained a metaphase I or II plate were considered not activated. Oocytes that contained anaphase, telophase or metaphase […] plates or pronuclei were considered to be activated.
Experiment 1 determined the effect of sequential exposure of oocytes to ionomycin and DMAP. One level of ionomycin (5 μM) and DMAP (1.9 mM) was used throughout all studies. The oocytes were cultured for 5 hours after ionomycin incubation with or without DMAP. Control oocytes were cultured in embryonic cell development medium alone. Activation was determined after 5 hours of culture. […]
Experiment 3 was designed to determine the kinetics of activation when oocytes were exposed to ionomycin alone or to ionomycin followed by a 3 hour incubation in DMAP. At the end of the 3 hour incubation, oocytes in DMAP were diluted in TL-HEPES (1 mg/ml Fraction V BSA) and moved to embryonic cell development medium until mounting. A sample of oocytes from both treatments were mounted at 1, 2, 3, 4 and 5 hours after exposure to ionomycin to determine the activation state.
Experiment 4 was designed to determine the time at which DMAP is necessary for parthenogenic activation relative to the exposure to ionomycin. The oocytes were exposed to ionomycin and placed in embryonic cell development medium. At 0, 1, 2, 2.5, 3 and 4 hours after ionomycin exposure, oocytes were placed in embryonic cell development medium+DMAP. At 5 hours post ionomycin exposure, the oocytes were mounted to determine their activation state.

[2] = system: 20-hours oocytes derived nuclear transfers; assay: Development of 20-hour oocyte derived nuclear transfers (fused after activation); assay type: cell-based, bovine; settings: treatment at 20 hours maturation after enucleation, 4 hours DMAP with or without ionomycin 5 μM 4 min
Method: This experiment was conducted under similar conditions as Experiment 6 with the exception that the oocytes were either placed directly in DMAP (young oocytes) or given in ionomycin (5 μM) treatment for 4 minutes plus DMAP treatment immediately after enucleation, i.e., at 20 hours maturation. At the end of the DMAP treatment, approximately 24 hours, embryonic cells were transferred into the oocytes and electrofusion was induced. The concentration of activating chemicals used were the same as those described in Experiment 6. The embryos were placed in maturation medium CR1aa for 6 to 7 days to determine developmental rates to blastocyst stage.

[3] = system: bovine oocytes matured for 24 hours; assay: Parthenogenic development of activated oocytes (initial cleavage, blastocyst, blastocyst cell number); assay type: cell-based; settings: for Development to Blastocyst (± se): after ionomycin 5 μM, day 7-8 of culture; for cell number in resulting parthenote blastocysts, Good / cell number in resulting parthenote blastocysts, Poor: after ionomycin
Method: as §1
In experiments that determined development potential of the parthenotes, activated oocytes were cultured for 7-8 days in embryonic cell development media. On the date after activation, initial cleavage was determined by visual observation. On day 4 of incubation 5% heat treated fetal calf serum was added to each drop. For some experiments, blastocysts were mounted and fixed in acetic acid:alcohol (1:3) and stained with 1% orcein dissolved in 40% acetic acid to determine cell numbers.
Experiments 2a and 2b determined the effect of time of incubation in DMAP on activation and development. In Experiment 2a, oocytes were incubated in DMAP for 15, 30, 60, 150 and 300 minutes. At the end of the incubation time indicated, oocytes were rinsed in TL-HEPES (1 mg/ml Fraction V BSA) and placed into embryonic cell development medium until 5 hours had elapsed. At 5 hours, a subsample of oocytes was removed and mounted to determine activation. The remaining oocytes were returned to the incubator for 7-8 days. Blastocytes on day 7-8 were rated as good or poor and cell number was determined.
Experiment 2b was similar in design except that oocytes were incubated for 2 hours, 3 hours, 4 hours, or 5 hours in DMAP.

[4] = system: 42-hour oocyte derived nuclear transfer (NT) embryos; assay: Development of 42-hour oocyte derived nuclear transfer embryos; assay type: cell-based, bovine; settings: 1.9 mM DMAP with room temperature activation (RTC) 2 hours; 140 NTs to culture; 6 to 7 days
Method: Bovine oocytes were obtained and placed in maturation media for approximately 20 hours. The cumulus cells were then stripped off the oocytes according to the previously described procedures.
The oocytes were then enucleated according to Prather et al. and placed in CR1aa maturation medium until 40 hours had elapsed. The oocyte were then placed in CR1aa maturation medium with 1.9 mM DMAP for 2 hours and incubated at room temperature activation (RTC) conditions (about 25° C.).
Following incubation, embryonic cells were transferred into the oocytes and the 2 cells were electrically fused together according to the procedures described in Prather et al., with the exception of the step of waiting until 42 hours to activate via RTC (25° C.) and adding DMAP prior to the time of electrofusion. The fused nuclear transfer embryos were then cultured in maturation medium CR1aa for 6 to 7 days to determine developmental rates to the blastocyst stage.

[5] = Experiment 3, FIG. 2, time after exposure to ionomycin

Structure (SMILES): C[C@H](CCC(=O)O)C[C@H](C)C[C@H](C)C(=O)/C=C(\O)[C@H](C)C[C@H](C)C/C=C/[C@@H](C)[C@@H](O)[C@@H](C)[C@@H](O)C[C@@H]1CC[C@@](C)([C@H]2CC[C@@](C)([C@@H](C)O)O2)O1 [Ionomycin, ionomycin]
- Activation of oocytes, result in words [1]: activated the oocytes to a high level
- Chromosome / pronuclear outcome, result in words [1]: instead of forming pronuclei the chromosomes reassembled into a metaphase plate
- Time by which oocytes had resumed meiosis [1, 5]: ≤ 1 h
- Time by which oocytes were arrested in metaphase III [1, 5]: 4 to 5 h
- % Activation [1]: 57.8 ± 7.8^b %
- % Pronuclear formation [1]: 8.9 ± 7.3^a %

Structure (SMILES): CN(C)c1ncnc2nc[nH]c12 [DMAP, 6-dimethylaminopurine]
- % Usable ([2]; cultured 6 to 7 days): 0%
- Development Rate to Blastocyst ([2]; cultured 6 to 7 days): 0%
- Cleavage Rate ([2]; fused after activation): 4%
- Development to Blastocyst (± se) ([3]; Experiment 2b, DMAP incubation 0 h (ionomycin alone)): 0^a %
- Development to Blastocyst (± se) ([3]; 6-DMAP 1.9 mM incubation 15 min): 0^a %
- Development to Blastocyst (± se) ([3]; 6-DMAP 1.9 mM incubation 30 min): 0^a %
- Development to Blastocyst (± se) ([3]; 6-DMAP incubation 0 min (ionomycin alone)): 0^a %
- cell number in resulting parthenote blastocysts, Good ([3]; DMAP incubation 2 h): 88.7
- cell number in resulting parthenote blastocysts, Good ([3]; DMAP incubation 3 h): 70.1
- cell number in resulting parthenote blastocysts, Poor ([3]; DMAP incubation 3 h): 33.1
- cell number in resulting parthenote blastocysts, Good ([3]; DMAP incubation 4 h): 73.6
- cell number in resulting parthenote blastocysts, Poor ([3]; DMAP incubation 4 h): 40.1
- cell number in resulting parthenote blastocysts, Good ([3]; DMAP incubation 5 h): 83.7
- cell number in resulting parthenote blastocysts, Poor ([3]; DMAP incubation 5 h): 44
- Activation of oocytes, result in words [1]: did not activate the oocytes
- Chromosome / pronuclear outcome, result in words [1]: caused the chromosomes to form a tight clump in the cytoplasm
- Effect of interval from ionomycin treatment to exposure to DMAP, result in words ([1]; Experiment 4, FIG. 3, interval more than 1 hour, mounted 5 hours post ionomycin): increase in ability to resume meiosis
- % Activation [1]: 7.8 ± 5.5^a %
- % Pronuclear formation [1]: 7.8 ± 5.5^a %
- Number Blastocyst [4]: 40
- Number Blastocyst, percent [4]: 29%
- Number Usable Blastocyst [4]: 18
- Number Usable Blastocyst, percent [4]: 13%
